{"source": "paper PMC9532951", "about": "“Identification and characterization of a novel SNAT2 (SLC38A2) inhibitor reveals synergy with glucose transport inhibition in cancer cells” (Frontiers in Pharmacology, 2022)", "key": {"[1]": {"system": "HCC1806 cells", "experiment": "Growth assay (IncuCyte confluence), HCC1806", "type": "cell-based, human", "conditions": "HCC1806, growth medium", "method": "Cells were seeded on 96-well flat bottom plates at approximately 3000 cells/well and incubated in growth medium (DMEM/F12 supplemented with 10% FBS, 2 mM glutamine) for 24 h. The next day, the growth medium was aspirated and exchanged with 300 μL/well of growth medium containing compounds at the indicated concentration. For live cell analysis, plates were placed in the IncuCyte system (Essen Bioscience), which was housed in a cell incubator (37°C, humidified atmosphere composed of 95% air and 5% CO2) and confluence measured at 6-h intervals or at the assay endpoint when untreated control cells reached a confluency >90%. Antibiotics (10 U/mL penicillin and 10 μg/ml streptomycin) were included in the treatment solutions.\nGrowth curves were generated using the Gompertz function of OriginPro software: y=ae^−e^(−k(x−xc))\nWhere a is the maximum confluence or upper asymptote, k is the growth rate coefficient, xc is the time point at which 50% confluence is reached (inflection point) and e is Euler’s number. Cell growth data are shown as % confluence."}, "[2]": {"biological_target": "T1, B0AT1 (SLC6A19) (Homo sapiens, UniProt Q695T7)", "T1 construct": "expressed in transfected cells", "T1 sequence (Q695T7 1-634)": "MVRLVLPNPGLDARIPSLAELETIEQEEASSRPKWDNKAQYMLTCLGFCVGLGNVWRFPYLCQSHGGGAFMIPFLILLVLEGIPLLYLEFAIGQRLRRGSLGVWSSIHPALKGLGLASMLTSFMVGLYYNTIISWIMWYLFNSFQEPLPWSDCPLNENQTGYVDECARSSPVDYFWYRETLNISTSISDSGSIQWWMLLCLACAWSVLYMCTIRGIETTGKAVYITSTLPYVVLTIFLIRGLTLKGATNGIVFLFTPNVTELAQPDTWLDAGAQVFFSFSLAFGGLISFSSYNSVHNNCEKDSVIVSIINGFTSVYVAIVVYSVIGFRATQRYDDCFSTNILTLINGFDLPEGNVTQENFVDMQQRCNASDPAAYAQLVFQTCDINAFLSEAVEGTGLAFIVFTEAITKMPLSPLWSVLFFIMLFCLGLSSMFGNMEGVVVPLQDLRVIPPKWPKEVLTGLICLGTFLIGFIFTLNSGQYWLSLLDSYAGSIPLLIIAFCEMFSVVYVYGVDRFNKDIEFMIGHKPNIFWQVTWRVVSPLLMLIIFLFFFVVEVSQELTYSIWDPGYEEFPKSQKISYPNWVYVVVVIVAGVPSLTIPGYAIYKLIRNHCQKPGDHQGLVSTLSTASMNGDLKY", "T1 sequence (Q9HBJ8 15-222 partner)": "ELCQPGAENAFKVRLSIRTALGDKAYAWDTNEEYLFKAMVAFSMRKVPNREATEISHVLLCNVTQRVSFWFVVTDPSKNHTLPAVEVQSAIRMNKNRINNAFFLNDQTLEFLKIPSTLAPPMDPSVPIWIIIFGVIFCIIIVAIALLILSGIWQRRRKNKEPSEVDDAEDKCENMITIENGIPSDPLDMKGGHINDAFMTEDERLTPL", "experiment": "Leucine uptake in CHO cells stably expressing human B0AT1 and collectrin", "type": "cell-based", "conditions": "150 µM leucine, hit compounds at 30 µM, n = 3"}, "[3]": {"biological_target": "T2, SNAT2 (Homo sapiens, UniProt Q96QD8)", "T2 sequence (Q96QD8 1-506)": "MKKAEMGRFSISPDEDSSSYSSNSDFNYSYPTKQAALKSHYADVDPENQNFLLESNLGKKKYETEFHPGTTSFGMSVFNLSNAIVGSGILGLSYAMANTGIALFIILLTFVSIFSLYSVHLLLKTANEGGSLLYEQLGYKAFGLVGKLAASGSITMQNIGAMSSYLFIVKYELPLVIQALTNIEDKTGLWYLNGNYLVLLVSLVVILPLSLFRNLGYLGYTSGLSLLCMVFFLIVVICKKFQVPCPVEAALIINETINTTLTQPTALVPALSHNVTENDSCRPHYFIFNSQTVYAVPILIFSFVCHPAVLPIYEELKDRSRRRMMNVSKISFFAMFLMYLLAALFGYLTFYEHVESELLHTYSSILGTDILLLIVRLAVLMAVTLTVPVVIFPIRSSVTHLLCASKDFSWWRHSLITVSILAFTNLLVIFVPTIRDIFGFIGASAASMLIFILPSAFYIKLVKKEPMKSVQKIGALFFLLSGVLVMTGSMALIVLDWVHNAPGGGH", "experiment": "FMP assay with betaine in amino acid depleted SKOV3 cells", "type": "cell-based", "design": "SKOV3 cells were pre-incubated in starvation medium for 15 h to induce SNAT2 expression; endogenous in cells; host or cells: SKOV3 ovarian cancer cells, amino acid depleted for 15 h", "method": "The FLIPR Membrane Potential Blue Explorer Kit (Molecular Devices) was used to characterise inhibitors and to optimise a high-throughput compound screen. Cells were seeded at approximately 60,000 cells/well on a 96-well plate and allowed to attach and grow overnight in a cell incubator. The next day, the cells were washed once with mHBSS and incubated in a starvation medium (composed of mHBSS with 1% dialysed heat-inactivated FBS, 23 mM NaHCO3, 10 U/ml penicillin and 10 μg/ml streptomycin) for 24 h. Cells were then washed once with mHBSS and incubated with 50 µl of the mHBSS-resuspended FMP assay dye and 50 µl of mHBSS (with or without inhibitors) and incubated at room temperature for 30 min. The plate was then placed in an EnSpire Multimode plate reader (PerkinElmer) and four sequential measurements of fluorescence were recorded as a baseline reference. […] The excitation wavelength was set to 530 nm and the emission was detected at 565 nm. The Δ fluorescent signal reported in the figures was taken 30 s after substrate addition. After the assay was complete, the liquid content of the plate was carefully removed, and the cell monolayer inspected to ensure it remained intact throughout the course of the assay."}}, "note": "Several values for one entry are separate records, joined by “and”; a condition that tells them apart may be missing. Equal values may be shown once."}
{"compound": "Cc1ccc(S(=O)(=O)N(C)c2ccsc2C(=O)NCc2ccccc2C(F)(F)F)cc1", "note": "[Compound 57_E, 3-(N-methyl (4-methylphenyl)sulfonamido)-N-(2-trifluoromethylbenzyl)thiophene-2-carboxamide]", "values": [{"measurement": "tolerated concentration", "setting": "[1]", "value": "up to 30 μM"}, {"measurement": "Leucine uptake, Mean", "setting": "[2]", "value": 55.2874, "unit": "nmol / mg protein x 6 min"}]}
{"compound": "C[N+](C)(C)CC(=O)O", "note": "[Betaine, betaine]", "values": [{"measurement": "Km", "setting": "[3]; SKOV3, 15 h starvation", "value": "4.3 ± 0.4", "unit": "mM"}, {"measurement": "FMP fluorescence trace (Figure 4E)", "setting": "[3]; concentration 0.03, time 45", "value": "36191 and 39302 and 41186"}, {"measurement": "FMP fluorescence trace (Figure 4E)", "setting": "[3]; concentration 0.03, time 60", "value": "36028 and 39595 and 40874"}, {"measurement": "FMP fluorescence trace (Figure 4E)", "setting": "[3]; concentration 0.03, time 75", "value": "36276 and 39484 and 40680"}, {"measurement": "FMP fluorescence trace (Figure 4E)", "setting": "[3]; concentration 0.03, time 90", "value": "36701 and 39571 and 40731"}, {"measurement": "FMP fluorescence trace (Figure 4E)", "setting": "[3]; concentration 0.03, time 105", "value": 36288}, {"measurement": "FMP fluorescence trace (Figure 4E)", "setting": "[3]; concentration 0.1, time 45", "value": "39809 and 43033 and 44738"}, {"measurement": "FMP fluorescence trace (Figure 4E)", "setting": "[3]; concentration 0.1, time 60", "value": "40091 and 43354 and 44846"}, {"measurement": "FMP fluorescence trace (Figure 4E)", "setting": "[3]; concentration 0.1, time 75", "value": "40044 and 43600 and 44897"}, {"measurement": "FMP fluorescence trace (Figure 4E)", "setting": "[3]; concentration 0.1, time 90", "value": "40287 and 43518 and 45010"}, {"measurement": "FMP fluorescence trace (Figure 4E)", "setting": "[3]; concentration 0.3, time 45", "value": "39193 and 54954 and 48855"}, {"measurement": "FMP fluorescence trace (Figure 4E)", "setting": "[3]; concentration 0.3, time 60", "value": "39317 and 55361 and 48804"}, {"measurement": "FMP fluorescence trace (Figure 4E)", "setting": "[3]; concentration 0.3, time 75", "value": "39855 and 55442 and 48718"}, {"measurement": "FMP fluorescence trace (Figure 4E)", "setting": "[3]; concentration 0.3, time 90", "value": "39384 and 55296 and 48820"}, {"measurement": "FMP fluorescence trace (Figure 4E)", "setting": "[3]; concentration 0.3, time 105", "value": "39825 and 55517 and 48933"}, {"measurement": "FMP fluorescence trace (Figure 4E)", "setting": "[3]; concentration 1, time 45", "value": "52793 and 67651 and 60777"}, {"measurement": "FMP fluorescence trace (Figure 4E)", "setting": "[3]; concentration 1, time 60", "value": "53223 and 68372 and 61573"}, {"measurement": "FMP fluorescence trace (Figure 4E)", "setting": "[3]; concentration 1, time 75", "value": "53467 and 68816 and 61749"}, {"measurement": "FMP fluorescence trace (Figure 4E)", "setting": "[3]; concentration 1, time 90", "value": "53620 and 69372 and 62182"}, {"measurement": "FMP fluorescence trace (Figure 4E)", "setting": "[3]; concentration 1, time 105", "value": "53487 and 69294 and 62105"}, {"measurement": "FMP fluorescence trace (Figure 4E)", "setting": "[3]; concentration 3, time 45", "value": "69502 and 81716 and 75888"}, {"measurement": "FMP fluorescence trace (Figure 4E)", "setting": "[3]; concentration 3, time 60", "value": "70408 and 83092 and 76997"}, {"measurement": "FMP fluorescence trace (Figure 4E)", "setting": "[3]; concentration 3, time 75", "value": "71034 and 84131 and 77980"}, {"measurement": "FMP fluorescence trace (Figure 4E)", "setting": "[3]; concentration 3, time 90", "value": "71787 and 84660 and 78697"}, {"measurement": "FMP fluorescence trace (Figure 4E)", "setting": "[3]; concentration 3, time 105", "value": "71870 and 85004 and 78476"}, {"measurement": "FMP fluorescence trace (Figure 4E)", "setting": "[3]; concentration 10, time 45", "value": "84051 and 99553 and 93004"}, {"measurement": "FMP fluorescence trace (Figure 4E)", "setting": "[3]; concentration 10, time 60", "value": "86308 and 101988 and 95225"}, {"measurement": "FMP fluorescence trace (Figure 4E)", "setting": "[3]; concentration 10, time 75", "value": "87856 and 103721 and 96631"}, {"measurement": "FMP fluorescence trace (Figure 4E)", "setting": "[3]; concentration 10, time 90", "value": "88823 and 104893 and 97518"}, {"measurement": "FMP fluorescence trace (Figure 4E)", "setting": "[3]; concentration 10, time 105", "value": "89188 and 106421 and 98442"}, {"measurement": "FMP fluorescence trace (Figure 4E)", "setting": "[3]; concentration 30, time 45", "value": "86227 and 101310 and 96479"}, {"measurement": "FMP fluorescence trace (Figure 4E)", "setting": "[3]; concentration 30, time 60", "value": "89361 and 105122 and 98804"}, {"measurement": "FMP fluorescence trace (Figure 4E)", "setting": "[3]; concentration 30, time 75", "value": "91535 and 107806 and 101327"}, {"measurement": "FMP fluorescence trace (Figure 4E)", "setting": "[3]; concentration 30, time 90", "value": "92748 and 109815 and 102783"}, {"measurement": "FMP fluorescence trace (Figure 4E)", "setting": "[3]; concentration 30, time 105", "value": "93673 and 111181 and 103799"}]}
